Results published in patent US20090181975A1, “NEBIVOLOL IN THE TREATMENT OF SEXUAL DYSFUNCTION” (FOREST LABORATORIES HOLDINGS LIMITED, priority 2008, published 2009).

Tests used:
diabetic rats = assay: Erectile responses to cavernosal nerve electrical stimulation (CNES) in STZ-diabetic rats; type: in vivo, rat (Sprague-Dawley); conditions: for erectile responses after sildenafil compared with non diabetic rats treated with sildenafil: 10 days treatment, then sildenafil 0.3 mg/kg i.v.
Experimental: Male Sprague-Dawley rats were used as a model for this study. Diabetes was induced by a single injection of streptozotocin (STZ, 60 mg/kg; i.p.) dissolved in 0.1 M citric acid/trisodic citrate buffer (pH 4-4.5) and was assessed by glycemia determination 72 h after induction. Animals were kept, with free access to food and water, for 8 weeks before experimental assays. Eight weeks after induction of diabetes, rats show reduced erectile responses (Angulo et al., Naunyn-Schmiedeberg's Arch Pharmacol, 358(5), 529-37, 1998; Angulo et al., J. Sex Med., 2, 341-346, 2005). Blood glucose concentration was determined each week and just before the experiment. Insulin levels were not determined. Rats were anesthetized with ketolar and diazepam. The surgical procedure consisted of dissection and isolation of the right cavernous nerve through an abdominal midline incision and exposure of penile crura through a transverse perineal incision. Intracavernosal pressure (ICP) measurements were permitted by insertion of a 23-gauge needle into the right crus. The right carotid artery and left external jugular vein were catheterized for constant blood pressure measurement and saline infusion, respectively. Electrostimulation was performed with a delicate platinum bipolar hook electrode connected to a stimulator and current amplifier. The parameters of electrical stimulation consisted of pulses with a duration of 0.3 ms and 1.5 mA of current intensity for 1 min. Frequency-response curves were performed by applying stimulation at 1, 3 and 10 Hz with a lapse of 3 min between each increase of frequency (Angulo et al., J. Sex Med., 2, 341-346, 2005). […] After this period of treatment, the diabetic rats were anesthetized and ICP responses to electrical stimulation were evaluated. After an equilibration period, the PDE5 inhibitor sildenafil (0.3 mg/kg) or the vehicle (25% glycofurol) was intravenously administered. Forty five minutes later, ICP responses were again determined

[1] = system: nitrite plus nitrate (NOx) in rat serum; assay: Serum nitrite plus nitrate (NOx) by Griess colorimetric method; type: in vivo; conditions: for effect on serum NOx concentration: i.v.: nebivolol 3 mg/kg, atenolol 3 mg/kg, vs vehicle
Experimental: Total NO derivatives (nitrites plus nitrates) were measured in pre-filtered (10,000 MW pore size) serum samples from the studied rats by the Griess colorimetric method, using a commercial kit for nitrite and nitrate determination from Cayman Chemical Co. (Ann Arbor, Mich.). Serum concentrations of NOx were determined 10 minutes after nebivolol administration.

cGMP in penile tissue = assay: Penile tissue cGMP in STZ-diabetic rats; type: in vivo, rat (Sprague-Dawley); conditions: for cGMP content in penile tissue from diabetic rats after administration of sildenafil: then sildenafil 0.3 mg/kg i.v.
Experimental: (§1) Male Sprague-Dawley rats were used as a model for this study. Diabetes was induced by a single injection of streptozotocin (STZ, 60 mg/kg; i.p.) dissolved in 0.1 M citric acid/trisodic citrate buffer (pH 4-4.5) and was assessed by glycemia determination 72 h after induction. Animals were kept, with free access to food and water, for 8 weeks before experimental assays. Eight weeks after induction of diabetes, rats show altered in vivo vascular function (Angulo et al., Naunyn-Schmiedeberg's Arch Pharmacol, 358(5), 529-37, 1998) and reduced erectile responses (Angulo et al., J. Sex Med., 2, 341-346, 2005). Blood glucose concentration was determined each week and just before the experiment. Insulin levels were not determined. Plasma samples were collected, immediately frozen and stored at −80° C. until extraction for cyclic nucleotide assay. Samples were then precipitated in ethanol, centrifuged and the supernatant was dried under a nitrogen stream. Penile tissues were rapidly immersed in liquid nitrogen and were stored at −80° C. until extraction for cyclic nucleotide assay. […] After 10 days treatment, diabetic rats were anesthetized and erectile responses to cavernosal nerve electrical stimulation (CNES) were determined. After an equilibration period, the PDE-5 inhibitor sildenafil (0.3 mg/kg) or the vehicle (25% glycofurol) was intravenously administered. Forty five minutes later, erectile responses to CNES were again evaluated, and 5 min after CNES application, blood was collected for obtaining plasma and serum, and the penis was excised. Serum samples were immediately frozen until determinations of NOx and TBARS. Plasma and penile tissues were immediately frozen until determinations of cGMP.

[2] = system: nitrite plus nitrate (NOx) in rat serum; assay: Serum NOx in STZ-diabetic rats; type: in vivo, rat (Sprague-Dawley); conditions: for effect on NOx content in sera from diabetic rats: 3 and 10 mg/kg/day s.c. for 10 days
Experimental: as §1, with “determined. Total NO derivatives (nitrites plus nitrates) were measured in pre-filtered (10,000 MW pore size) serum” for “determined. Plasma”, “samples from the studied rats by the Griess colorimetric method, using a commercial kit for nitrite” for “samples were collected, immediately frozen”, “and nitrate determination from Cayman Chemical Co. (Ann Arbor, Mich.). See […] et al., Methods Enzymol., 268, 142-151, 1996.” for “and stored at −80° C. until extraction for cyclic nucleotide assay. Samples were then precipitated in ethanol, centrifuged and the supernatant was dried under a nitrogen stream. Penile tissues were rapidly immersed in liquid nitrogen and were stored at −80° C. until extraction for cyclic nucleotide assay.”

[3] = system: human corpus cavernosum (HCC) strips; assay: Relaxation of human corpus cavernosum strips contracted with U46619; type: cell-based; conditions: for relaxation of HCC strips by cumulative addition: U46619 1-3 nM, nebivolol 1 nM to 0.1 mM; for relaxation of HCC strips by cumulative addition / effect on sildenafil-induced relaxation of HCC strips: sildenafil 1 nm to 10 μM; for effect on acetylcholine-induced endothelium-dependent relaxation of HCC strips: metoprolol 1 μM, nebivolol 0.3 μM; for effect on acetylcholine-induced endothelium-dependent relaxation of HCC strips / effect on sildenafil-induced relaxation of HCC strips: atenolol 1 μM; for effect on sildenafil-induced relaxation of HCC strips: nebivolol at 1 and 10 μM
Experimental: Specimens of human corpus cavernosum were obtained from organ donors and from impotent men at the time of penile prosthesis implantation. Tissues were placed in ice-cold M-400 solution (pH 7.4; 400 mOsm/kg, composition in w/v: 4.19% manitol, 0.2% KH2PO4, 0.97% K2HPO4.3H2O, 0.11% KCl and 0.08% NaHCO3) at the time of removal and transported to the laboratory for utilization within 16 h. Strips of human corpus cavemosum were mounted on force transducers in 8 ml organ baths (37° C.) containing physiological salt solution (PSS) continuously bubbled with 95% O2/5% CO2 mixture to maintain a pH of 7.4. Strips were contracted with the thromboxane receptor agonist U46619 (1-3 nM) and relaxation responses were evaluated by cumulative additions of compounds to the chambers.

cGMP in rat plasma = assay: Plasma cGMP in STZ-diabetic rats; type: in vivo, rat (Sprague-Dawley)
Experimental: as §1

[4] = 3 mg/kg/day s.c. for 10 days, sildenafil 0.3 mg/kg i.v.
[5] = 10 mg/kg/day s.c. for 10 days, sildenafil 0.3 mg/kg i.v., atenolol: measured as AUC of ICP

CCCc1nn(C)c2c(=O)[nH]c(-c3cc(S(=O)(=O)N4CCN(C)CC4)ccc3OCC)nc12 [sildenafil]
effect on erectile responses to CNES in diabetic rats (diabetic rats; sildenafil 0.3 mg/kg i.v., vehicle-treated diabetic rats): potentiation of erectile responses
effect on serum NOx concentration ([1]; sildenafil 0.3 mg/kg): did not alter NOx levels
effect on nebivolol-induced increment in serum NOx ([1]; nebivolol 3 mg/kg i.v., L-NAME 3 mg/kg, ODQ 1 mg/kg, propranolol 1 mg/kg, sildenafil 0.3 mg/kg): did not alter NOx levels or affect nebivolol-induced effects
effect on cGMP levels in penile tissue from diabetic and non diabetic rats (cGMP in penile tissue; sildenafil 0.3 mg/kg i.v.): produced an increase
effect on serum NOx content in rats ([2]; sildenafil 0.3 mg/kg i.v.): did not modify
influence on the effects of nebivolol and atenolol on NOx content in sera from diabetic rats ([2]; sildenafil 0.3 mg/kg i.v.): not influenced
relaxation of HCC strips by cumulative addition [3]: concentration dependent relaxations
effect on plasma cGMP levels in diabetic and non diabetic rats (cGMP in rat plasma; sildenafil 0.3 mg/kg i.v.): marked increase

OC(CNCC(O)C1CCc2cc(F)ccc2O1)C1CCc2cc(F)ccc2O1 (racemic) [nebivolol, α,α′-iminobis(methylene)bis[6-fluoro-2-chromanmethanol]]
erectile effect of 3 mg/kg/day dose compared with 10 mg/kg/day dose (diabetic rats; 3 mg/kg/day for 10 days): equally as effective as the 10 mg/kg/day dose
potentiation by sildenafil of erectile responses after 10 days treatment (diabetic rats; [4]): No significant potentiation
potentiation by sildenafil of erectile responses after 10 days treatment (diabetic rats; [5]): No significant potentiation
effect on erectile responses in diabetic rats in the absence of the PDE5 inhibitor (diabetic rats; 3 and 10 mg/kg/day for 10 days): significantly enhanced
erectile responses in treated diabetic rats compared with non diabetic rats (diabetic rats; 3 and 10 mg/kg/day for 10 days, no PDE5 inhibitor): not significantly different from those achieved by non diabetic rats
erectile responses after sildenafil compared with non diabetic rats treated with sildenafil (diabetic rats): not significant differences
increase of the concentration of NOx in serum compared to the vehicle ([1]; 3 mg/kg i.v.): three-fold increase
concentration of NOx in serum ([1]; 3 mg/kg i.v., 10 minutes after administration, vehicle 4.9±0.4, p<0.05): 15.4 ± 2.8 µM
effect on serum NOx concentration ([1]; sildenafil 0.3 mg/kg): significantly higher than after vehicle
effect on cGMP content in penile tissue from diabetic rats (cGMP in penile tissue; 3 and 10 mg/kg/day for 10 days): statistically significant increase
cGMP content in penile tissue from diabetic rats after administration of sildenafil (cGMP in penile tissue; 3 and 10 mg/kg/day for 10 days): significantly higher than those obtained in diabetic rats treated with vehicle
effect on NOx content in sera from diabetic rats [2]: significantly increased
NOx effect, comparison of doses ([2]; 3 vs 10 mg/kg/day): more marked with the 3 mg/kg/day dose
relaxation of HCC strips by cumulative addition [3]: modest relaxant effect
effect on acetylcholine-induced endothelium-dependent relaxation of HCC strips [3]: not significantly modified
effect on sildenafil-induced relaxation of HCC strips [3]: significantly potentiated
effect on acetylcholine-induced (endothelium-dependent) relaxation of HCC ([3]; pre-treatment with nebivolol 10 μM): potentiated
effect on plasma cGMP content in diabetic rats (cGMP in rat plasma; 3 and 10 mg/kg/day for 10 days): did not result in significant modifications
influence on the effects of sildenafil on plasma cGMP content in diabetic rats (cGMP in rat plasma; 3 and 10 mg/kg/day for 10 days, sildenafil 0.3 mg/kg i.v.): did not influence

CC(C)NCC(O)COc1ccc(CC(N)=O)cc1 (stereo not drawn) [atenolol]
potentiation by sildenafil of erectile responses after 10 days treatment (diabetic rats; [4]): did not reach statistical significance
effect of the higher dose on erectile function in diabetic rats (diabetic rats; 10 mg/kg/day for 10 days): did not positively affect
potentiation by sildenafil of erectile responses after 10 days treatment (diabetic rats; [5]): reached statistical significance
erectile responses after sildenafil compared with non diabetic rats treated with sildenafil (diabetic rats): significantly reduced erectile responses
effect on serum NOx concentration ([1]; sildenafil 0.3 mg/kg): did not significantly alter
cGMP content in penile tissue from diabetic rats after administration of sildenafil (cGMP in penile tissue; 3 and 10 mg/kg/day for 10 days): did not modify
effect on NOx content in sera from diabetic rats [2]: did not affect
effect on acetylcholine-induced endothelium-dependent relaxation of HCC strips [3]: not significantly modified
effect on sildenafil-induced relaxation of HCC strips [3]: not affected
